Laboratory results taken from BindingDB's records for patent US11352330 (Hoffmann-La Roche, 2022).
pIC50: −log10 of the molar value.

Biological target: Autotaxin (Homo sapiens, UniProt Q13822)
Assay: Human ATX Enzyme Inhibition Assay
Method: Assay working solutions were made as follows:Assay buffer (50 mM Tris-HCl, 140 mM NaCl, 5 mM KCl, 1 mM CaCl2, 1 mM MgCl2, 0.01% Triton-X-100, pH 8.0;ATX solution: ATX (human His-tagged) stock solution (1.08 mg/mL in 20 mM bicine, pH 8.5, 0.15 M NaCl, 10% glycerol, 0.3% CHAPS, 0.02% NaN3), diluted to 1.4-2.5× final concentration in assay buffer;MR121 substrate solution: MR121 substrate stock solution (800 μM MR121 substrate in DMSO), diluted to 2-5× final concentration in assay buffer.Test compounds (10 mM stock in DMSO, 8 μL) were obtained in 384 well sample plates (Corning Costar #3655) and diluted with 8 μL DMSO. Row-wise serial dilutions were made by transferring 8 μL cpd solution to the next row up to row O. The compound and control solutions were mixed five times and 2 μL were transferred to 384 well assay plates (Corning Costar #3702). Then, 15 μL of 41.7 nM ATX solution was added (30 nM final concentration), mixed five times and then incubated for 15 minutes at 30° C. 10 μL of MR121 substrate solution was added (1 μM final concentration), mixed 30 times and then incubated for 15 minutes at 30° C.

COc1ccccc1-c1cc(Cl)c(C)cc1OCc1n[nH]c(=O)n1C [US11352330, Example B56]
pIC50: 7.82
